From paper PMC8381248 (Frontiers in Pharmacology, 2021)

What was measured:
[1] = Kinetic solubility test in PBS; format: physicochemical; conditions: phosphate-buffer saline (PBS)
Procedure: Internal standard (IS) solutions (propranolol and tolbutamide) were dissolved by acetonitrile (50 ng/ml propranolol + 200 ng/ml tolbutamide).
The sample solutions were analyzed using LC-MS/MS. All the samples (test samples and references) for detection were prepared in duplicate. The conditions for LC-MS/MS are shown in Support Materials (Supplementary Table S1).

[2] = Plasma protein binding rate, rapid equilibrium dialysis, human plasma; format: in vitro ADME; conditions: 37°C
Procedure: In brief, the unbound drugs (or references) were separated from plasma (human and rat) in a 96-well plate with a semipermeable membrane through which only unbound drug can permeate. The equilibrium unit was sealed and incubated at 37°C in a mixer at 100 rpm for 4 h.
Then, 50 ng/ml of midazolam and 50 ng/ml of tolbutamide (in acetonitrile) were used as IS.
After reaching equilibrium, the concentrations of the samples in both the plasma and the buffer compartment were determined. According to the specification, the resultant supernatant was collected, properly diluted by distilled water, vortexed for 10 min, and finally analyzed using LC-MS/MS. All the samples (PDG, PINL, diclofenac, and propranolol) for detection were prepared in duplicate.
The concentrations of the samples were determined by internal standard methods, in which the data were acquired and analyzed by Analyst 1.6.1 software station (AB Sciex Corporation, Boston, MA, United States). The equation of plasma protein binding rate is calculated as follows: Free drug rate (%)=CB/CA×100% (3) Plasma protein binding rate (%)=100%−Free drug rate(%) (4) C B is the drug concentration in dialysis chamber, and C A is the drug concentration in the sample chamber.

[3] = Urinary excretion study after intravenous administration; format: in vivo, Sprague-Dawley (SD) rats; conditions: IV 5 mg/kg; for excretion amount in urine: rat
Procedure: Eighteen male SD rats were housed in the barrier rodent facilities to acclimatize for a week in animal quarters, which had air conditioning and an automatically controlled photoperiod of 12 h of light daily. Rats had free access to standard chow diet and water until 12 h prior to the beginning of the experiment, at which time only water was accessed freely. The rats were randomly divided into six groups, with three rats in each group.
A series of calibration standard working solutions (20.0, 10.0, 2.0, 1.0, 0.2, 0.04, and 0.02 μg/ml) was prepared freshly by diluting the stock solution stepwise using ACN-water (70:30, v/v). […] The IS working solutions of 200 ng/ml of tolbutamide or 50 ng/ml of diclofenac sodium were prepared by dilution of the stock standard solution with acetonitrile solution. All the solutions were stored at 4°C and brought to room temperature before use.
QC samples (3, 40, 800, and 1,600 ng/ml) were prepared separately. For PDG urine samples, the calibration standards were prepared by spiking 5 μL of the appropriate standard working solutions of PDG to 95 μL blank rat urine to prepare the final urine concentration of PDG ranging from 1 ng/ml to 2000 ng/ml. QC samples (3, 40, 800, and 1,600 ng/ml) were prepared separately. […] QC samples (15, 30, 400, and 1,600 ng/ml) were prepared separately.
Urine samples were collected while the rats remained isolated in metabolic cages at intervals of 0, 2, 4, 8, 24, and 30 h after administration, and the volumes of the urine were measured. The urine samples were also stored at −20°C before tested by LC-MS/MS. For the urine calibration standards, QC urine samples, and the testing urine samples, 100 µL of the urine samples were extracted with 300 µL of methyl tert-butyl ether (MTBE) by vortex mixing for 1 min and centrifuged at 4°C for 10 min at 13,000 rpm. Then, 200 µL of the supernatant was separated and evaporated under a gentle stream of nitrogen. The residue was reconstituted with 120 µL of 30% ACN with 5 µL of IS working solution ([…]), followed by vortex mixing for 10 min.
Linear gradient elution was performed with certain portions of 10 mM ammonium acetate-water solution containing 0.1% formic acid (mobile phase A) and methanol (mobile phase B). The detailed conditions have been described in Support Materials (Supplementary Table S5).

[4] = tested on: PE-constricted aortic rings; test: Vasorelaxant effects on isolated PE-constricted aortic rings; design: species or system SD rats; conditions: 10^–6 M PE, n = 6
Procedure: SD rats were anesthetized by exposure to ether, and the thoracic aorta was removed and immersed in Krebs-Henseleit (K-H) buffer ([Lee et al., 2013]) at 4°C. The connective tissues and fats around the aorta were carefully removed under the microscopes, and the blood was flushed. The aorta ring was cut into four sections approximately 3 mm long and suspended in organ chambers containing K-H buffer. The endothelium was also removed by gently rubbing the lumen of the vessel with a cotton swab. The aortic rings were placed in a 5 ml organ chambers of DMT multiwire myograph system (620M, Danish Myo Technology, Denmark) and were filled with K-H buffer aerated with 95% O2 and 5% CO2 at 37°C. The aortic rings were mounted on hooks connected to a tension transducer and a displacement device.
The initial vessel tension was slowly adjusted to 15 mN and maintained balanced for 60 min. The buffer was renewed once every 15 min. After equilibration, the vessel viability was pre-constricted by exposing the aortic rings to 60 mM KCl for 10 min ([Ding et al., 2019]). Then, the K-H buffer was continuously renewed to elute and restore the initial tension of the vascular ring to assay the vascular activity. The pre-treated operation was repeated two times, where the constriction amplitude after each KCl stimulation to reach the previous constriction amplitude was taken as the criterion, before the experiment continued. Subsequently, 10^–6 M PE was added to contract the blood vessel. After the constriction was stable, different concentrations of Ach (10^−9–10^–5 M) were used to dilate the vessels. Then, the vasorelaxation degree could be calculated with different Ach concentrations, as the following equation: Vasorelaxation degree (%)=Maxium constriction tension induced by PE−Minium diastolic tension induced by Ach/Maxium constriction tension induced by PE−Resting tension×100% (10) When the vasorelaxation degree corresponding to Ach (10^–5 M) is greater than 80%, the vascular endothelium is considered intact and functional. The endothelium is considered to be removed with a vasorelaxation degree of less than 20% ([Lee et al., 2013]). Endothelium-intact and endothelium-denuded aortic rings from the same aorta were tested.
After equilibration, the endothelium-intact and the endothelium-denuded aortic rings were pre-constricted with 10^–6 M PE in the K-H buffer system.
After equilibration, the endothelium-intact aortic rings were pre-constricted with 10^–6 M PE in the K-H buffer system. […] Then, the corresponding vasoconstrictive responses were examined and recorded.
In the vasorelaxant effects investigations, all the data are presented as mean ± SEM. Statistical analysis was performed using two-way ANOVA followed by Fisher’s least significant difference (LSD) test. Values at p < 0.05 were considered statistically significant.

## COc1cc(C2OCC3C(c4ccc(OC5OC(CO)C(O)C(O)C5O)c(OC)c4)OCC23)ccc1OC1OC(CO)C(O)C(O)C1O (single isomer, unassigned; (+)) [PDG, (+)-1-pinoresinol 4,4′-di-O-β-D-glucopyranoside]
[1]; aqueous buffer, kinetic from dmso stock, PBS (100 mM, pH 7.4)
  solubility kinetic: 99.5 ± 14 µg/mL
[1]; aqueous buffer, kinetic from dmso stock, PBS (pH 7.4), μg/ml value expressed in µM
  solubility kinetic: ~146 µM
[1]; PBS (pH 7.4), μg/ml value expressed in µM
  solubility kinetic: > 100 µM
[2]
  fraction unbound at 4 h, 10 µM: 0.548
[3]; rat urine, for 30 h
  cumulative urinary excretion, % of the dose: approximately 78.24%
[3]; rat urine, within 30 h, n = 3
  Cumulative Excretion Amount: 807,789.5 ± 65,828.8 ng
[3]; 0–2 h, n = 3
  excretion amount in urine: 503,669.8 ± 292,869.4 ng
[3]; 2–4 h, n = 3
  excretion amount in urine: 274,878.3 ± 236,625.8 ng
[3]; 4–8 h, n = 3
  excretion amount in urine: 989.1 ± 1,053.6 ng
[3]; 8–24 h, n = 3
  excretion amount in urine: 2,596.9 ± 1776.4 ng
[3]; 24–30 h, n = 3
  excretion amount in urine: 245.1 ± 173.0 ng
[3]; Wash, n = 3
  excretion amount in urine: 25,410.3 ± 5,874.3 ng
[4]; increasing concentration 25–200 μM
  vasorelaxant effect on PE-constricted aortic rings: concentration-dependent vasorelaxation
[4]; PINL difference at 50–100 μM
  vasorelaxation degree, endothelium-denuded versus endothelium-intact group: not statistically significant
